Measured values taken from PubChem BioAssay (NCI).
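48-hour exposure; five concentrations; linearly interpolated endpoints. TGI marks complete inhibition of growth.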

Tests used:
Experiment in all cases: NCI-60 cell line screen, 48 h
HOP-92 NSCLC = tested on: HOP-92 NSCLC
M14 melanoma = tested on: M14 melanoma
HS 578T breast = tested on: HS 578T breast
KM12 colon = tested on: KM12 colon
SK-MEL-2 melanoma = tested on: SK-MEL-2 melanoma
SNB-75 CNS = tested on: SNB-75 CNS
HOP-62 NSCLC = tested on: HOP-62 NSCLC
CAKI-1 renal = tested on: CAKI-1 renal
RPMI-8226 leukemia = tested on: RPMI-8226 leukemia
HL-60(TB) leukemia = tested on: HL-60(TB) leukemia

SMILES | TGI (HOP-92 NSCLC) | TGI (M14 melanoma) | TGI (HS 578T breast) | TGI (KM12 colon) | TGI (SK-MEL-2 melanoma) | TGI (SNB-75 CNS) | TGI (HOP-62 NSCLC) | TGI (CAKI-1 renal) | TGI (RPMI-8226 leukemia) | TGI (HL-60(TB) leukemia)
O=C1CCC2(c3ccc(F)cc3)Nc3ncncc3N12 (configuration not stated) | > 10 µM | > 10 µM | > 10 µM | > 10 µM | > 10 µM | > 10 µM |  |  |  | 
Cc1ccc2cccc(OC(=O)c3cc4c(cc3Cl)Sc3nccn3S4(=O)=O)c2n1 | 68 µM | 25.7 µM | > 100 µM | 18.7 µM | 27.1 µM | 39.6 µM | 19.4 µM | > 79.9 µM | 7.03 µM | 
CC1(CC(=O)OC(C#C[Si](C)(C)C)Cc2ccccc2)OCCO1 (configuration not stated) |  | > 100 µM | > 100 µM | > 100 µM | > 100 µM | > 100 µM | > 100 µM | > 100 µM |  | > 100 µM
COc1ccc(C2Oc3c(cccc3OC)C=C2[N+](=O)[O-])cc1 (configuration not stated) |  | 2.15 µM | 8.82 µM | 4.52 µM |  |  | 5.8 µM | 4.31 µM | > 100 µM | > 100 µM
Clc1cccc(Cl)c1C1SCc2nc3ncccc3n21 (configuration not stated) |  | > 100 µM | > 100 µM | > 100 µM | > 100 µM | > 100 µM | > 100 µM | > 100 µM | > 100 µM | > 100 µM
Cc1ccccc1Nc1cn(CCOc2ccccc2)c(=O)n(CCOc2ccccc2)c1=O | > 100 µM | > 100 µM | > 100 µM | > 100 µM |  |  | > 100 µM | > 100 µM | > 100 µM | > 100 µM
CC1OC2OC3C(OCC(O)C3O)OC(=O)[C@]34CCC(C)(C)CC3C3=CCC5[C@@]6(C)C[C@H](O)[C@H](OC7OC(CO)C(O)C(O)C7OC7OC(COC(=O)CC(C)(O)CC(=O)OC1C(O)C2O)C(O)C(O)C7O)[C@@](C)(CO)C6CC[C@@]5(C)[C@]3(C)CC4 (some centres not stated) | 2.94 µM | 2.76 µM | 3.54 µM | 2.89 µM | 2.85 µM | 2.89 µM | 2.69 µM | 2.74 µM |  | 2.87 µM
O=C(CN1CCCC1)Nc1ccc2sc3ccccc3c(=O)c2n1 | 74.6 µM | 54.4 µM | 52.1 µM | 44.2 µM | 49.1 µM | 60 µM | 65 µM | 47.1 µM | 63 µM | 
C/C(=C\[C@H]1C[C@@H]([C@@H]2CC[C@]34C[C@]23C=C[C@@H]2[C@@]3(C)CC=C5C[C@@H](c6ccccc6)OC[C@]5(C)[C@@H]3C[C@@H](O)[C@]24C)C(=O)O1)CO | 28.1 µM | > 100 µM | > 72.2 µM | 15.3 µM | > 100 µM | 92 µM | > 100 µM | 28.3 µM | > 96.4 µM | 
O=C1C(c2c(O)[nH]c3ccc(S(=O)(=O)N(CCO)CCO)cc23)=Nc2ccccc21 | > 100 µM | > 100 µM | > 100 µM | > 100 µM | > 100 µM | 8.49 µM | > 100 µM | > 100 µM | > 100 µM | 
CCCCC/C(=N\c1nc[nH]c1C(N)=O)OCC |  | > 100 µM | > 100 µM | > 100 µM | > 100 µM |  | > 100 µM | > 100 µM | > 100 µM | > 100 µM
CCC(/C=C/c1ccccc1)=N\N=C(\C=C\c1ccccc1)CC |  | > 100 µM |  | > 100 µM | > 100 µM | > 100 µM | > 100 µM |  | > 100 µM | > 100 µM
Nc1nc(Cl)nc2c1ncn2C1CCC(CO)O1 (configuration not stated) | > 100 µM | > 100 µM | > 100 µM | > 100 µM | > 100 µM | > 100 µM | > 100 µM | > 100 µM | > 100 µM | 
Cc1cc(-c2ccc(Cl)cc2)c(C#N)c(=S)n1C1OC(CO)C(O)C(O)C1O (configuration not stated) |  | > 100 µM | > 100 µM | > 100 µM | > 100 µM | 78.7 µM | > 100 µM | > 100 µM |  | > 100 µM
C=C1C(=O)O[C@H]2[C@H]3O[C@@H](C[C@@H]12)[C@](C)(O)CCCC(C)=CCC[C@H]3C | 8.45 µM |  | 29.2 µM | 27.1 µM | 28.7 µM | 22.3 µM | 31.3 µM | 28.5 µM | 17.4 µM | 
CC(C)(Cc1ccccc1)Cc1cc(O)ccc1O | 36.5 µM | 37.4 µM |  | 32.1 µM |  | 68.1 µM | 64.3 µM | 35.1 µM |  | 4.8 µM
CN(C)N1C(=O)CC2(CCN(CCCC(=O)c3ccc(F)cc3)CC2)C1=O |  | > 100 µM | > 100 µM | > 100 µM | > 100 µM | > 100 µM | > 100 µM | > 100 µM | > 100 µM | > 100 µM
CCOC(=O)c1cc(Cl)ccc1OC(N)=O | > 100 µM |  |  | > 100 µM | > 100 µM | > 100 µM | > 100 µM | > 100 µM | > 100 µM | > 100 µM
Cc1ccc(OCCn2cc(Nc3ccccc3)c(=O)[nH]c2=O)cc1 | > 100 µM | > 100 µM | > 100 µM | > 100 µM | > 100 µM | > 100 µM |  | > 100 µM | > 100 µM | 
N.N.N.N.O=S(=O)([O-])[O-].[Co+3].[OH3+].[OH3+] | > 100 µM | > 100 µM |  | > 100 µM | > 100 µM | > 100 µM | > 100 µM |  | > 100 µM | > 100 µM
[O-][n+]1onc2c1-c1nonc1CC2 |  | 89.8 µM | 66.8 µM | 81.5 µM | 65.2 µM |  | 61.2 µM | > 100 µM | > 100 µM | 96.2 µM
CO/N=C/c1c(-c2ccc(Cl)cc2)c(/C=N/OC)n2c1sc1ccccc12 | > 100 µM |  | > 100 µM | > 100 µM | > 100 µM | > 100 µM | > 100 µM | > 100 µM |  | > 100 µM
O=C(O)CCCC#CCCCC(=O)O | > 100 µM | > 100 µM | > 100 µM | > 100 µM | > 100 µM | > 100 µM | > 100 µM | > 100 µM |  | 
